Measured values from patent publication US8673376B2, “Polyphenol-containing composition for oral administration or external use and use of same” (Biotherapy Development Research Center Co., Ltd., priority 2009, dated 2014).
One block for each compound: values may come before it.

Experiments:
tyrosinase = assay: Tyrosinase activity inhibition test; format: biochemical; settings: DOPA substrate, control = 100
Method: (§1) The test samples were the freeze-dried products of the hot water extract obtained in Preparation 1 (1) and the fractions eluted with 10% and 50% aqueous ethanol solutions obtained in Preparation 1 (2).
0.5 mL of substrate (DOPA) solution adjusted to the final concentration of 0.03% with a phosphoric acid buffer was mixed with 0.5 mL of test sample solution prepared using a phosphoric acid buffer, and cooled on ice. 0.5 mL of tyrosinase solution adjusted to the final concentration of 45 U/mL with a phosphoric acid buffer was added to the mixture, incubated at 25° C. for 5 minutes, and then the absorbance at 475 nm was measured. The reaction rate (activity) of tyrosinase was calculated from the difference of the absorbance. In order to eliminate the influence of the color of the test sample, the absorbance of a mixture containing a phosphoric acid buffer in place of the tyrosinase solution was measured, thereby correcting the absorbance.

[1] = tested on: Mouse melanoma cells B16F1; assay: Melanin production inhibition test, B16F1 cells; format: cell-based; settings: control = 100; for Melanin production rate: α-MSH 100 ng/mL, 72 hours
Method: Mouse melanoma cells B16F1 were the third or higher passage cultured in Dulbecco's Modified Eagle Medium (D-MEM) containing 10% FBS (manufactured by Nissui Pharmaceutical Co., Ltd.) mixed with 0.5% penicillin-streptomycin (manufactured by Gibco).
as §1
(a) Amount of Melanin Production • 960 μL of mouse cells B16F1 cultured in D-MEM culture medium containing 10% FBS was seeded on a 24-well plate to give a final concentration of 1.0×10^5 cells/well (seeding concentration: 1.04×10^5 cells/mL), and cultured for 24 hours in a CO^2 incubator. 20 μL of melanin production hormone (α-MSH) adjusted to a final concentration of 100 ng/mL (addition concentration: 5.0 μg/mL) and 20 μL of test sample adjusted to 10 μg/mL (500 μg/mL) or 100 μg/mL (5000 μg/mL) were added, and cultured for 72 hours. The culture medium was removed, washed with PBS, and then 100 μL of a trypsin EDTA solution was added thereby removing the cells from the plate, and 900 μL of 1N sodium hydroxide aqueous solution was added. The cells were allowed to stand at room temperature for 20 to 24 hours thereby causing cytolysis, and then the melanin content was measured at an absorbance of 475 nm.

[2] = tested on: Human melanoma cells (HMVII); assay: Melanin production inhibition test, HMVII cells; format: cell-based; settings: control = 100
From the text: Human melanoma cells (HMVII) were the third or higher passage cultured in a culture solution of a Ham F-12 culture medium (manufactured by Nissui Pharmaceutical Co., Ltd.) containing 10% FBS, mixed with 0.5% penicillin-streptomycin (manufactured by Gibco). The test samples were the freeze-dried products of the hot water extract obtained in Preparation 1 (1) and the fractions eluted with 10% and 50% aqueous ethanol solutions obtained in Preparation 1 (2). […] The culture medium was removed, washed with PBS, and then 100 μL of a trypsin EDTA solution was added thereby removing the cells from the plate, and 900 μL of 1N sodium hydroxide aqueous solution was added. The cells were allowed to stand at room temperature for 20 to 24 hours thereby causing cytolysis, and then the melanin content was measured at an absorbance of 475 nm.

- Reaction rate of tyrosinase (tyrosinase; 10 μg/mL): 42.35%
- Reaction rate of tyrosinase (tyrosinase; 100 μg/mL): 8.71%
SMILES: O=c1cc(CO)occ1O [Kojic acid]

SMILES: OC[C@H]1O[C@@H](Oc2ccc(O)cc2)[C@H](O)[C@@H](O)[C@@H]1O [β arbutin]
- Melanin production rate after correction of survival rate ([1]; 10 μg/mL): 83.48%
- Melanin production rate ([1]; 10 μg/mL): 95.41%
- Melanin production rate after correction of survival rate ([1]; 100 μg/mL): 82.52%
- Melanin production rate ([1]; 100 μg/mL): 93.76%

SMILES: O=C1O[C@H]([C@@H](O)CO)C(O)=C1O [Ascorbic acid]
- Melanin production rate after correction of survival rate ([2]; 10 μg/mL): 102.74%
- Melanin production rate after correction of survival rate ([2]; 100 μg/mL): 95.60%
- Melanin production rate ([2]; 100 μg/mL, α-MSH 100 ng/mL, 72 hours): 94.76%
